These results are taken from ChEMBL document CHEMBL4145628, “Strategy for Extending Half-life in Drug Design and Its Significance” (ACS Med Chem Lett, 2018).

A short description of series [1]: Fraction unbound in rat plasma. Format: ADME, cell-free.
The nature of series [2]: Bioavailability in rat. Format: ADME, organism-based. To be noted: in vivo.
Series [3] is described as follows: Plasma clearance in rat. Format: ADME, organism-based.
A short description of series [4]: Effective half life in rat. Format: ADME, organism-based. The conditions noted are these: in vivo, read-out: t1/2eff (converted).

As for `C[C@H]1CN(c2cc(-c3n[nH]c4ccc(OC5(C)CC5)cc34)ncn2)CCO1`, in series [1], the fraction unbound turned out to be 0.019. This compound also yielded a bioavailability in series [2] of 32%. This compound returned a clearance in series [3] of 69 mL/min/kg. Besides, in series [4], the half-life was 31.2 min.

On to `CC1(Oc2ccc3[nH]nc(-c4cc(N5CCO[C@@H](CO)C5)ncn4)c3c2)CC1`, for which, in series [1], the fraction unbound is 0.051. Further, in series [2], the bioavailability was found to be 36%. The compound also had a clearance in series [3] of 78 mL/min/kg. The half-life in series [4] is 29.4 min.

For `CC(C)Oc1ccc2[nH]nc(-c3cc(N4C[C@@H](C)O[C@@H](C)C4)ncn3)c2c1`, in series [1], the fraction unbound worked out at 0.017. For the same compound, in series [2], the bioavailability was 25%. In series [3], this compound registered a clearance of 64 mL/min/kg. Further, the half-life in series [4] was 34.2 min.

`CC(C)Oc1cc2c(-c3cc(N4C[C@@H](C)O[C@@H](C)C4)ncn3)n[nH]c2cc1F` showed a fraction unbound in series [1] of 0.008. In series [2], this compound came in with a bioavailability of 20%. In addition, the clearance in series [3] was 65 mL/min/kg. The half-life in series [4] is 56.4 min.
